Measured values: ChEMBL document CHEMBL1145715, “Massetolides A-H, antimycobacterial cyclic depsipeptides produced by two pseudomonads isolated from marine habitats” (J Nat Prod, 1997)
Values after ≈ are worked out from the molar mass of the structure shown. Active and inactive are the calls of the source. The calls are words filed in the database; no cut-off is given here.

Legend:
Staphylococcus aureus = assay: Antibacterial activity against Staphylococcus aureus by middle-brook 7H10 agar proportion method; assay type: functional, organism-based
Escherichia coli = assay: Antibacterial activity against Escherichia coli by middle-brook 7H10 agar proportion method; assay type: functional, organism-based
[1] = tested on: Mycobacterium avium-intracellulare; assay: Antimycobacterial activity against Mycobacterium avium-intracellulare by middle-brook 7H10 agar proportion method; assay type: functional
Mus musculus = assay: Toxicity in mouse at 10 mg/kg, ip; assay type: organism-based; set-up: dose 10 mg/kg, route intraperitoneal; conditions: in vivo
[2] = tested on: Mycobacterium tuberculosis; assay: Antimycobacterial activity against Mycobacterium tuberculosis by middle-brook 7H10 agar proportion method; assay type: functional

Row | SMILES | Activity (Staphylococcus aureus) | Activity (Escherichia coli) | MIC [1] | Activity (Mus musculus) | MIC [2]
1 | CCCCCCC[C@H](O)CC(=O)N[C@@H](CC(C)C)C(=O)N[C@H](CCC(=O)O)C(=O)N[C@H]1C(=O)N[C@H]([C@H](C)CC)C(=O)N[C@@H](CC(C)C)C(=O)N[C@H](CO)C(=O)N[C@@H](CC(C)C)C(=O)N[C@H](CO)C(=O)N[C@@H]([C@H](C)CC)C(=O)O[C@@H]1C | inactive | inactive | – | – | –
2 | CCCCCCC[C@H](O)CC(=O)N[C@@H](CC(C)C)C(=O)N[C@H](CCC(=O)O)C(=O)N[C@H]1C(=O)N[C@H]([C@@H](C)CC)C(=O)N[C@@H](CC(C)C)C(=O)N[C@H](CO)C(=O)N[C@@H](CC(C)C)C(=O)N[C@H](CO)C(=O)N[C@@H]([C@@H](C)CC)C(=O)O[C@@H]1C [MASSETOLIDE A] | – | – | 2.5 µg/mL (≈ 2.19 µM) | Non-toxic | 5 µg/mL (≈ 4.38 µM)
